Values quoted from earlier work in US20120156286A1, “COMPOSITIONS AND METHODS FOR INCREASED DELIVERY OF COENZYME Q10” (IMAGENETIX, INC., priority 2010, published 2012).

Conditions: in vivo

COC1=C(OC)C(=O)C(C/C=C(\C)CC/C=C(\C)CC/C=C(\C)CC/C=C(\C)CC/C=C(\C)CC/C=C(\C)CC/C=C(\C)CC/C=C(\C)CC/C=C(\C)CCC=C(C)C)=C(C)C1=O [CoQ10, Coenzyme Q10]
Intestinal absorption: less than 10%
